± gives the expanded uncertainty stated by the source.
Test: mn = molality of the nth substance listed, in mol/kg
Settings: for surface tension liquid-gas: Ring tensiometer; for electrical conductivity: 100 kPa, Liquid, Alternating current cell with electrodes

CCCCCCCCC[NH+](CCO)CC(C)O.[Cl-] (stereo not drawn) + O
Settings	electrical conductivity [S/m]	surface tension liquid-gas [mN/m]
293.15 K, m1 = 1.77e-05	0.00044 ± 2.5e-05	–
293.15 K, m1 = 1.774e-05	–	61.16 ± 0.79
293.15 K, m1 = 3.548e-05	–	54.59 ± 0.71
293.15 K, m1 = 3.66e-05	0.000507 ± 2.8e-05	–
293.15 K, m1 = 5.55e-05	0.000574 ± 3.2e-05	–
293.15 K, m1 = 7.43e-05	0.000641 ± 3.5e-05	–
293.15 K, m1 = 8.87e-05	–	46.05 ± 0.61
293.15 K, m1 = 9.32e-05	0.000709 ± 4e-05	–
293.15 K, m1 = 0.0001121	0.000776 ± 4.4e-05	–
293.15 K, m1 = 0.0001309	0.000843 ± 4.8e-05	–
293.15 K, m1 = 0.0001498	0.00091 ± 5.2e-05	–
293.15 K, m1 = 0.0001687	0.000977 ± 5.7e-05	–
293.15 K, m1 = 0.0001774	–	39.04 ± 0.53
293.15 K, m1 = 0.0001875	0.00104 ± 6.1e-05	–
293.15 K, m1 = 0.0002064	0.00111 ± 6.5e-05	–
293.15 K, m1 = 0.0002253	0.00118 ± 7e-05	–
293.15 K, m1 = 0.0002441	0.00125 ± 7.4e-05	–
293.15 K, m1 = 0.000263	0.00131 ± 7.9e-05	–
293.15 K, m1 = 0.0002661	–	35.47 ± 0.49
293.15 K, m1 = 0.0002819	0.00138 ± 8.3e-05	–
293.15 K, m1 = 0.0003008	0.00145 ± 8.7e-05	–
293.15 K, m1 = 0.0003196	0.00152 ± 9.2e-05	–
293.15 K, m1 = 0.0003385	0.00158 ± 9.6e-05	–
293.15 K, m1 = 0.0003548	–	33.14 ± 0.47
293.15 K, m1 = 0.0003574	0.00165 ± 0.0001	–
293.15 K, m1 = 0.0003762	0.00172 ± 0.00011	–
293.15 K, m1 = 0.0003951	0.00178 ± 0.00011	–
293.15 K, m1 = 0.000414	0.00185 ± 0.00011	–
293.15 K, m1 = 0.0004257	–	31.39 ± 0.45
293.15 K, m1 = 0.0004328	0.00192 ± 0.00012	–
293.15 K, m1 = 0.0004555	0.00197 ± 0.00012	–
293.15 K, m1 = 0.0004782	0.00202 ± 0.00013	–
293.15 K, m1 = 0.0005009	0.00207 ± 0.00013	–
293.15 K, m1 = 0.0005236	0.00212 ± 0.00013	–
293.15 K, m1 = 0.0005464	0.00217 ± 0.00013	–
293.15 K, m1 = 0.0005691	0.00222 ± 0.00013	–
293.15 K, m1 = 0.0005918	0.00227 ± 0.00014	–
293.15 K, m1 = 0.0006145	0.00232 ± 0.00014	–
293.15 K, m1 = 0.0006372	0.00236 ± 0.00014	–
293.15 K, m1 = 0.0006599	0.00242 ± 0.00014	–
293.15 K, m1 = 0.0006826	0.00246 ± 0.00014	–
293.15 K, m1 = 0.0007053	0.00251 ± 0.00015	–
293.15 K, m1 = 0.000728	0.00256 ± 0.00015	–
293.15 K, m1 = 0.0007507	0.00261 ± 0.00015	–
293.15 K, m1 = 0.0007734	0.00266 ± 0.00015	–
293.15 K, m1 = 0.0007961	0.00271 ± 0.00015	–
293.15 K, m1 = 0.0008188	0.00276 ± 0.00015	–
293.15 K, m1 = 0.0008415	0.00281 ± 0.00016	–
293.15 K, m1 = 0.0008642	0.00286 ± 0.00016	–
293.15 K, m1 = 0.0008869	0.00291 ± 0.00016	–
293.15 K, m1 = 0.000887	–	30.48 ± 0.44
293.15 K, m1 = 0.001774	–	29.73 ± 0.44
293.15 K, m1 = 0.002661	–	29.56 ± 0.43
293.15 K, m1 = 0.003547	–	29.48 ± 0.43
298.15 K, m1 = 1.77e-05	0.00054 ± 3e-05	–
298.15 K, m1 = 1.774e-05	–	56.05 ± 0.73
298.15 K, m1 = 3.548e-05	–	49.71 ± 0.66
298.15 K, m1 = 4.07e-05	0.000642 ± 3.7e-05	–
298.15 K, m1 = 6.36e-05	0.000745 ± 4.1e-05	–
298.15 K, m1 = 8.66e-05	0.000848 ± 7.7e-05	–
298.15 K, m1 = 8.87e-05	–	41.62 ± 0.56
298.15 K, m1 = 0.0001095	0.00095 ± 5.7e-05	–
298.15 K, m1 = 0.0001324	0.00105 ± 6e-05	–
298.15 K, m1 = 0.0001554	0.00115 ± 6.6e-05	–
298.15 K, m1 = 0.0001774	–	35.73 ± 0.49
298.15 K, m1 = 0.0001783	0.00126 ± 0.00012	–
298.15 K, m1 = 0.0002013	0.00136 ± 9.1e-05	–
298.15 K, m1 = 0.0002242	0.00146 ± 9.3e-05	–
298.15 K, m1 = 0.0002472	0.00156 ± 9.6e-05	–
298.15 K, m1 = 0.0002661	–	32.44 ± 0.46
298.15 K, m1 = 0.0002701	0.00167 ± 9.2e-05	–
298.15 K, m1 = 0.000293	0.00177 ± 0.00039	–
298.15 K, m1 = 0.000316	0.00187 ± 0.0001	–
298.15 K, m1 = 0.0003389	0.00198 ± 0.00021	–
298.15 K, m1 = 0.0003619	0.00208 ± 0.0003	30.45 ± 0.44
298.15 K, m1 = 0.0003881	0.00215 ± 0.00013	–
298.15 K, m1 = 0.0004144	0.00222 ± 0.00014	–
298.15 K, m1 = 0.0004406	0.00229 ± 0.00013	–
298.15 K, m1 = 0.0004669	0.00237 ± 0.00014	–
298.15 K, m1 = 0.0004931	0.00244 ± 0.00013	–
298.15 K, m1 = 0.0005194	0.00251 ± 0.00014	–
298.15 K, m1 = 0.0005456	0.00258 ± 0.00014	–
298.15 K, m1 = 0.0005719	0.00265 ± 0.00018	–
298.15 K, m1 = 0.0005981	0.00273 ± 0.00015	–
298.15 K, m1 = 0.0006244	0.0028 ± 0.00015	–
298.15 K, m1 = 0.0006507	0.00287 ± 0.00016	–
298.15 K, m1 = 0.0006769	0.00294 ± 0.00016	–
298.15 K, m1 = 0.0007032	0.00301 ± 0.00017	–
298.15 K, m1 = 0.0007294	0.00309 ± 0.00017	–
298.15 K, m1 = 0.0007557	0.00316 ± 0.00017	–
298.15 K, m1 = 0.0007819	0.00323 ± 0.00018	–
298.15 K, m1 = 0.0008082	0.0033 ± 0.00018	–
298.15 K, m1 = 0.0008344	0.00337 ± 0.00019	–
298.15 K, m1 = 0.000887	–	29.41 ± 0.43
298.15 K, m1 = 0.001774	–	28.9 ± 0.43
298.15 K, m1 = 0.002661	–	28.56 ± 0.42
298.15 K, m1 = 0.003547	–	28.41 ± 0.42

From the NIST ThermoML archive (doi:10.1021/acs.jced.7b00347)
